# Measured values published in patent US11771709B2, “ALK protein degradation agent and anti-tumor application thereof” (ShanghaiTech University, priority 2017, dated 2023).
# Like-named read-outs stand apart in the source and are kept apart here.
# Legend:
# SR (NPM-ALK) cells = test: Growth inhibition IC50 in ALCL SR cells (CCK8/WST, 72 hours); assay type: cell-based; conditions: 72 h, SR cells, WST; Brigatinib-based PROTAD molecules (Table 3)
# Procedure: (§3) SR (NPM-ALK) and NCI-H2228 (EML4-ALK, V3) cells were purchased from ATCC. […] All Cells were cultured in RPMI1640 medium with 10% FBS and Penicillin-Streptomycin in 37° C. incubator with 5% CO2.
# (§4) Cells were seeded at specific density in 96 well plates one day before treatment. […] Viable cells were measured via CCK8 reagent and IC50s were calculated via Prism Graphad. Experiments were repeated at least three times.
# [1] = tested on: NCI-H2228 (EML4-ALK, V3) cells; test: Growth inhibition IC50 in lung adenocarcinoma H2228 cells (WST); assay type: cell-based; conditions: Homo sapiens, WST (Table 3)
# Excerpt: Experiments were repeated at least three times.
# Besides above, we also tested the dosage-dependent effects on the growth inhibition in H2228 cells. […] (Table 3).
# Ba/F3 (EML4-ALK/WT) = target: T1, Ba/F3 (EML4-ALK/WT) (Homo sapiens, UniProt Q9UM73); test: Growth inhibition IC50 in Ba/F3 cells expressing EML4-ALK wild type; assay type: cell-based
# T1 construct: Q9HC35 (Echinoderm microtubule-associated protein-like 4)
# Procedure: as §4
# Ba/F3 (EML4-ALK/L1196M) = target: T2, Ba/F3 (EML4-ALK/L1196M) (Homo sapiens, UniProt Q9UM73, L1196M, cells depend on it); test: Growth inhibition IC50 in Ba/F3 cells expressing EML4-ALK L1196M; assay type: cell-based
# T2 construct: Q9HC35 (Echinoderm microtubule-associated protein-like 4)
# Procedure: as §4
# Ba/F3 (EML4-ALK/C1156Y) = target: T3, Ba/F3 (EML4-ALK/C1156Y) (Homo sapiens, UniProt Q9UM73, C1156Y, cells depend on it); test: Growth inhibition IC50 in Ba/F3 cells expressing EML4-ALK C1156Y; assay type: cell-based
# T3 construct: Q9HC35 (Echinoderm microtubule-associated protein-like 4)
# Procedure: as §4
# [2] = tested on: PC9 (EGFR, exon 19 del) cells; test: Growth inhibition IC50 in EGFR mutant lung adenocarcinoma PC9 cells; assay type: cell-based; conditions: Homo sapiens, PC-9; PC9 cells, CTB, n ≥ 3; read-out: Half Inhibitory Concentration (IC50) Mean
# Procedure: as §3, §4
# [3] = tested on: PC9Brc1 (EGFR, exon 19 del+T790M) cells; test: Growth inhibition IC50 in EGFR mutant lung cancer PC9Brc1 cells; assay type: cell-based; conditions: CTB, n ≥ 3, read-out: Half Inhibitory Concentration (IC50) Mean
# Procedure: as §3, §4
# [4] = tested on: SW48 cell line (EGFR G719S); test: Growth inhibition IC50 in EGFR G719S colorectal cancer cell line SW48; assay type: cell-based; conditions: Homo sapiens, CTG, n = 2, read-out: Half Inhibitory Concentration (IC50) Mean
# Procedure: as §4
# [5] = tested on: U118MG cells (FIG-ROS1 gene fusion); test: Growth inhibition IC50 in ROS1 mutant glioblastoma cell line U118MG (72 hours); assay type: cell-based; conditions: Homo sapiens, U-118-MG, U118MG cells, 72 hours
# MOLM13 cells (FLT3-ITD) = test: Growth inhibition IC50 in FLT3-ITD AML cell line MOLM13; assay type: cell-based; conditions: Homo sapiens, MOLM-13, MOLM13 cells
# Procedure: as §4
# [6] = target: T4, ALK protein in SR (NPM-ALK) cells (Homo sapiens, UniProt Q9UM73); test: Western blot of ALK protein level (degradation, DC50), ALK phosphorylation and downstream signaling in SR cells; assay type: cell-based; conditions: for DC50: ALK protein degradation in SR cells; for ALK protein degradation within a time course: 100 nM, 4 hours (SIAIS1210117), up to 24 hours (epimer)
# T4 construct: NPM (nucleophosmin, NPM1, P06748) fusion partner; host or cells: SR (ALCL) cells; the other entry of the earlier key: NPM1 (P06748, Nucleophosmin)
# [7] = target: T5, ALK protein in H3122 (EML4-ALK) cells (Homo sapiens, UniProt Q9UM73); test: Western blot of ALK protein level (degradation, DC50), ALK phosphorylation and downstream signaling in H3122 cells; assay type: cell-based
# T5 construct: EML4 (Echinoderm microtubule-associated protein-like 4, Q9HC35) fusion partner, variant 1; host or cells: NCI-H3122 lung adenocarcinoma cells; the other entry of the earlier key: EML4 (Q9HC35, Echinoderm microtubule-associated protein-like 4)
# Procedure: Cancer cells were seeded in 1 ml RPMI1640 medium in 24-well plate at the density of 3×10^5 or 1.5×10^5 cells/ml. […] Then cells were washed twice with PBS and lyzed in RIPA lysis buffer with Halt Proteinase and Phosphotase inhibitor. Equal amount of proteins were loaded to run SDS-PAGE gels after denature. The gels were blotted to PVDF membrane. After incubating with first and secondary antibodies, the images were developed using SuperSignal West Pico Chemiluminescent Substrate.
# DC50 (concentration required to degrade protein by half) were calculated based on the intensity from western blot, and data were analyzed via Prism GraphPad with non-linear regression.
# [8] = tested on: ALK protein in H2228 (EML4-ALK) cells; test: Western blot of ALK protein level, ALK phosphorylation and downstream signaling in H2228 cells; assay type: cell-based
# Procedure: Cancer cells were seeded in 1 ml RPMI1640 medium in 24-well plate at the density of 3×10^5 or 1.5×10^5 cells/ml. The next day cells were treated with different concentration of drugs for 16 hours. Then cells were washed twice with PBS and lyzed in RIPA lysis buffer with Halt Proteinase and Phosphotase inhibitor. Equal amount of proteins were loaded to run SDS-PAGE gels after denature. The gels were blotted to PVDF membrane. After incubating with first and secondary antibodies, the images were developed using SuperSignal West Pico Chemiluminescent Substrate.
# The effect of Brigtinib based PROTAD molecules on the ALK protein total level were studied by western blot in ALCL SR (NPM-ALK) cell line and lung adenocarcinoma cell line H2228 and H3122 (EML4-ALK).
# The effects of compounds SIAIS164008 and SIAIS164018 of the present invention on the activation of ALK mediated signaling pathways were also studied in SR cells and H2228 cells. […] The overall effect of compound of SIAIS164018 was better than that of SIAIS164008.
# ALK protein in SR cells = target: T6, ALK protein in SR cells (Homo sapiens, UniProt Q9UM73); test: Block of ALK degradation by proteosome inhibitors MG132 and MLN4924 in SR cells; assay type: cell-based
# T6 construct: NPM (nucleophosmin, NPM1, P06748) fusion partner; host or cells: SR (ALCL) cells; the other entry of the earlier key: NPM1 (P06748, Nucleophosmin)
# Excerpt: To further validate the degradation effect act through proteosome mediated pathway, we also treated cells with two different proteosome inhibitors MG132 and MLN4924 to block protein degradation (FIG. 16).
# H2228 cells (EML4-ALK) = test: Colony formation assay in H2228 cells; assay type: cell-based; conditions: about 2 weeks
# Procedure: (§1) Cell were digested to become single cell suspension. Cells were seeded in the intensity of 250 cells/well in 12 well plate. Treated cells at the concentration of 100, 250, 500 nM. Fixed cells 2-3 weeks after and stained cells with crystyl violate.
# In order to see the effect of ALK PROTAD compounds on the colony formation ability of cancer cells, EML4-ALK mutant lung cancer cells H2228 were firstly seeded in 12 well plate at the density of 200 cells per well. Cells were treated with different ALK PROTAD compounds at different concentration for about 2 weeks.
# [9] = Pharmacokinetics (PK) study in SD rat (IV, IP, PO; LC-MS/MS); assay type: in vivo; conditions: Sprague-Dawley, serum
# Procedure: SD rat were used to study the PK of ALK PROTAD compounds. ALK PROTAD compounds SIAIS164008, SIAIS164018, SIAIS164023 and SIAIS151118 were administrated into SD rat via three different routes: IV (Intravenous Injection), IP (Intraperitoneal Injection) and PO ([…]). Blood samples at different sampling time points up to 24 hours post dosing were collected from each animal and analyzed with LC-MS/MS to calculate the PK for each chemical.
# PC9Brc1 cells = test: Colony formation assay in PC9Brc1 cells; assay type: cell-based; conditions: PC9 Brc1 cells
# Procedure: as §1
# (§2) ALK PROTAD compound SIAIS1210117 and its negative control epimer SIAIS219050 were used.
# PC9 cells = test: Colony formation assay in PC9 cells; assay type: cell-based
# Procedure: as §1, §2
# [10] = n = 2, reagent CTG, read-out: Half Inhibitory Concentration (IC50) Mean
SMILES,IC50 (SR (NPM-ALK) cells),IC50 [1],GI50 (Ba/F3 (EML4-ALK/WT)),GI50 (Ba/F3 (EML4-ALK/L1196M)),GI50 (Ba/F3 (EML4-ALK/C1156Y)),IC50 [2],IC50 [3],IC50 [4],"IC50 [5, 10]",IC50 (MOLM13 cells (FLT3-ITD); [10]),DC50 [6],reduction of ALK protein level and its block by MG132 and MLN4924 (ALK protein in SR cells),colony formation (H2228 cells (EML4-ALK)),ALK protein degradation within a time course ([6]; SR cells),colony formation (PC9Brc1 cells),further results
"COc1cc(N2CCC(N3CCN(C(=O)CNc4cccc5c4C(=O)N(C4CCC(=O)NC4=O)C5=O)CC3)CC2)ccc1Nc1ncc(Cl)c(Nc2ccccc2P(C)(C)=O)n1 (stereo not shown) [SIAIS164018, 4-((2-(4-(1-(4-((5-chloro-4-((2-(dimethylphosphoryl)phenyl)amino)pyrimidin-2-yl)amino)-3-methoxyphenyl)piperidin-4-yl)piperazin-1-yl)-2-oxoethyl)amino)-2-(2,6-dioxopiperidin-3-yl)isoindoline-1,3-dione]",0.002 ± 0.0014 µM,0.0179 µM,0.0309 µM,0.0574 µM,0.0427 µM,0.15 µM,0.9 µM,2.76 µM,16.9 µM,0.079 µM,0.5 to 1 nM,able to be blocked,dramatically inhibited,,,"IC50 (MOLM13 cells (FLT3-ITD); read-out: IC50): 0.079 µM; concentration at which ALK proteins were degraded ([6]; SR cells, western blot): less than 1 nM; concentration inhibiting the phosphorylation of ALK proteins ([6]; SR cells, western blot): 0.1 nM; downstream signaling pathway (PI3K/AKT, MEK/ERK and STAT3) ([6]; SR cells, western blot): significantly inhibited; ALK protein degradation ([6]; SR cells, western blot, 16 hours, up to 500 nM): effectively degrade ALK proteins at nano mole concentration; DC50 ([7]; ALK protein degradation in H3122 cells): 1 to 10 nM; ALK protein level / degradation ([7]; H3122 cells, western blot, up to 500 nM): a similar effects was observed; phosphorylation of ALK protein and activation of PI3K/AKT pathway [8]: inhibited; bioavailability ([9]; IP, 2 mg/kg): 157%; half-life ([9]; IP, 2 mg/kg, read-out: serum half-life (converted)): 3.65 h; Tmax ([9]; IP, 2 mg/kg, read-out: time to maximal serum peak level (Tmax)): ~2.67 h; clearance ([9]; IV, single dose 2 mg/kg, read-out: clearance rate, mean value): ~22.6 mL/min/kg; half-life ([9]; IV, single dose 2 mg/kg, read-out: serum clearance half-life (converted)): ~4.65 h; bioavailability ([9]; PO, 10 mg/kg): 18.4%; Tmax ([9]; PO, 10 mg/kg, read-out: Tmax): 2 h; half-life ([9]; PO, 10 mg/kg, read-out: serum half-life (converted)): 7.09 h"
"COc1cc(N2CCC(NC(=O)CCCCCCCCCC(=O)N[C@H](C(=O)N3C[C@@H](O)C[C@H]3C(=O)NCc3ccc(-c4scnc4C)cc3)C(C)(C)C)CC2)ccc1Nc1ncc(Cl)c(Nc2ccccc2P(C)(C)=O)n1 [SIAIS219050, N1-(1-(4-((5-chloro-4-((2-(dimethylphosphoryl)phenyl)amino)pyrimidin-2-yl)amino)-3-methoxyphenyl)piperidin-4-yl)-N11-((S)-1-((2S,4S)-4-hydroxy-2-((4-(4-methylthiazol-5-yl)benzyl)carbamoyl)pyrrolidin-1-yl)-3,3-dimethyl-1-oxobutan-2-yl)undecanediamide]",,,,,,,,,,,,did not have such effect,,did not induce degradation of ALK protein,could not,
"COc1cc(N2CCC(NC(=O)CCCCCCCCCC(=O)N[C@H](C(=O)N3C[C@H](O)C[C@H]3C(=O)NCc3ccc(-c4scnc4C)cc3)C(C)(C)C)CC2)ccc1Nc1ncc(Cl)c(Nc2ccccc2P(C)(C)=O)n1 [SIAIS1210117, N1-(1-(4-((5-chloro-4-((2-(dimethylphosphoryl)phenyl)amino)pyrimidin-2-yl)amino)-3-methoxyphenyl)piperidin-4-yl)-N11-((S)-1-((2S,4R)-4-hydroxy-2-((4-(4-methylthiazol-5-yl)benzyl)carbamoyl)pyrrolidin-1-yl)-3,3-dimethyl-1-oxobutan-2-yl)undecanediamide]",0.0017 ± 0.001 µM,0.0303 µM,0.123 µM,0.17 µM,0.12 µM,0.106 µM,0.46 µM,1.36 µM,0.92 µM,0.345 µM,0.5 to 10 nM,able to be blocked,dramatically inhibited,significant ALK protein degradation,able to inhibit,IC50 ([5]; read-out: IC50): ~0.92 µM; colony formation (PC9 cells): able to inhibit
